Data as given in US20260248800A1, “FERROPTOSIS INHIBITORS AND USES THEREOF” (UNIVERSITY OF OTTAWA, priority 2022, published 2026).
Like-named read-outs stand apart in the source and are kept apart here. Marks after values point to notes of the source that are not given here.

How the values were obtained:
[1] = at 37° C. in PhCl; literature; cited from earlier work
[2] = Liver microsome stability assay; settings: pH 7.4
MEFs = settings: inhibition of RSL3-induced ferroptosis in MEFs; Shah et al., 2017; cited from earlier work
[3] = tested on: Pfa-1 mouse embryonic fibroblasts (MEFs)
[4] = tested on: Pfa-1 mouse embryonic fibroblasts (MEFs); experiment: cells; settings: Fibroblast
[5] = H-bond acidity (α2^H) of the RTA by 1H NMR; format: physicochemical; settings: estimated from the 1H NMR chemical shift difference of the amine proton in DMSO-d6 and benzene-d6
[6] = MeOAMVN-initiated co-autoxidation of STY-BODIPY and egg PC liposomes (FENIX); format: biochemical; settings: for n (radical-trapping stoichiometry): MeOAMVN-initiated co-autoxidation of STY-BODIPY and egg PC liposomes; for predicted increase in kinh^lip relative to PNX: predicted/estimated kinh^lip vs PNX
[7] = in dilinoleoyl phosphatidylcholine (PC) liposomes; cited from earlier work
[8] = inhibited autoxidation of styrene in chlorobenzene; cited from earlier work
[9] = mouse, microsomes
[10] = Table 6, from survival curve of RSL3 induced ferroptosis of pfa-1 MEFS
[11] = read-out: Pfa-1 MEF Ferroptosis EC50, RSL3-induced cell death (150 nM for 5 hours), AquaBluer
[12] = 5 h, read-out: Pfa-1 MEF Ferroptosis EC50, RSL3-induced cell death (150 nM for 5 hours), AquaBluer
[13] = RSL3-induced cell death (150 nM for 5 hours), AquaBluer
[14] = apparent inhibition rate constant, MeOAMVN-initiated autoxidation of egg PC liposomes, determined by fluorescence
[15] = measured in MeOAMVN-initiated autoxidation of egg PC liposomes
[16] = apparent inhibition rate constant, MeOAMVN-initiated autoxidation of egg PC liposomes, determined by absorbance (STY-BODIPY 10-20 μM, 565 nm)
[17] = predicted from log kinh^0, α2^H and β2^H=0.69 using Eq. 4 (too reactive to be determined directly)

Structure (SMILES)	EC50 [3, 11]	EC50 [4, 12]	EC50 [4, 10]	α2^H [5]	kinh^lip [6, 14]	n (radical-trapping stoichiometry) [6]	further results
Clc1cccc(CN=C2Nc3ccccc3NC23CCNCC3)c1 [Lip-1, liproxstatin-1]	18 nM	–	–	–	–	–	kinh [1]: 200000 M⁻¹ s⁻¹; t1/2 ([2]; BALB/c mouse liver microsomes increased (1.0 mg/mL), 1 mM NADPH, 37° C., 10 μM compound (Verapamil 1 μM)): (133 ± 8.4) ^d min; EC50 (MEFs): 35 nM; EC50 [3, 10]: 18 ± 1 nM
CC(c1ccc2c(c1)Nc1ccc(C(F)(F)F)cc1O2)S(=O)(=O)NCCN(C)C (stereo not shown) [Compound 44, N-(2-(dimethylamino)ethyl)-1-(7-(trifluoromethyl)-10H-phenoxazin-2-yl)ethanesulfonamide]	–	2.2 ± 0.1 nM	2.2 ± 0.1 nM	–	–	–	Pfa-1 MEF Ferroptosis EC50 [3, 13]: single-digit nanomolar potency
O=[N+]([O-])c1ccc2c(c1)Sc1cc([N+](=O)[O-])ccc1N2 [Compound 29, 3,7-Dinitrophenothiazine, reference compound]	≥ 1000 nM	> 1000 nM	–	0.62	(0.41 ± 0.04) 10^5 M^−1s^−1	–	viability at 1000 µM ([4]; read-out: apparent cell viability): ~50%; kinh^lip [6, 15]: 400 M⁻¹ s⁻¹
c1ccc2c(c1)Nc1ccccc1S2 [Compound 2, phenothiazine, reference compound]	–	24 ± 1 nM	24 ± 1 nM	0.38	–	1.9 ± 0.1	kinh [1]: ~ 8×10^6 M^−1s^−1; half-life at 10 μM ([2]; BALB/c, mouse, liver microsomes): 11.5 min; kinh^lip [6, 16]: (110 ± 20)^e 10^5 M^−1s^−1
FC(F)(F)c1ccc2c(c1)Nc1ccccc1O2 [Compound 6, 2-trifluoromethylphenoxazine]	8.8 ± 0.5 nM	9 nM	–	0.51	(75 ± 11) 10^5 M^−1s^−1	3.0 ± 0.1	–
Cc1ccc2c(c1)Oc1cc(C)ccc1N2 [Compound 35, 3,7-Dimethylphenoxazine]	5.4 ± 0.2 nM	6 nM	–	0.41	–	–	kinh^lip [6, 17]: 1180 ^f 10^5 M^−1s^−1; predicted increase in kinh^lip relative to PNX [6]: 5.1 fold
Cc1c(C)c2c(c(C)c1O)CC[C@@](C)(CCC[C@H](C)CCC[C@H](C)CCCC(C)C)O2 [α-TOH, α-tocopherol]	–	–	–	–	–	–	kinh [7]: 6000 M⁻¹ s⁻¹; kinh [8]: 3e+06 M⁻¹ s⁻¹
CC(c1ccc2c(c1)Nc1ccc(C(F)(F)F)cc1O2)S(=O)(=O)N1CCNCC1 (stereo not shown) [Compound 46, 2-(1-(piperazin-1-ylsulfonyl)ethyl)-7-(trifluoromethyl)-OH-phenoxazine]	–	3 ± 0.1 nM	3 ± 0.1 nM	–	–	–	Pfa-1 MEF Ferroptosis EC50 [3, 13]: single-digit nanomolar potency
FC(F)(F)c1ccc2c(c1)Nc1ccccc1S2 [Compound 25, reference compound]	16 ± 1 nM	–	–	0.44	(19 ± 1) 10^5 M^−1s^−1	2.5 ± 0.1	–
CCOC(=O)c1ccc(NC2CCCCC2)c(N)c1 [Fer-1, ferrostatin-1]	27 nM	–	–	–	–	–	kinh [1]: 300000 M⁻¹ s⁻¹; t1/2 [9]: 5.3 ± 0.1 min; EC50 (MEFs): 45 nM; EC50 [3, 10]: 27 ± 2 nM
CC(C)(C)c1ccc2c(c1)Oc1cc(C(F)(F)F)ccc1N2 [Compound 10, 3-tert-Butyl-7-trifluoromethylphenoxazine]	–	5.2 ± 0.2 nM	5.2 ± 0.2 nM	–	(55 ± 10) 10^5 M^−1s^−1	2.8 ± 0.1	Pfa-1 MEF Ferroptosis EC50 [3, 13]: single-digit nanomolar potency
CC(C)(C)c1ccc2c(c1)Nc1cc(C(F)(F)F)ccc1O2 [Compound 8, 2-tert-Butyl-8-trifluoromethylphenoxazine]	–	5.6 ± 0.3 nM	5.6 ± 0.3 nM	–	(64 ± 9) 10^5 M^−1s^−1	2.3 ± 0.1	Pfa-1 MEF Ferroptosis EC50 [3, 13]: single-digit nanomolar potency
Clc1ccc2c(c1)Nc1ccccc1S2 [Compound 24, reference compound]	56 ± 10 nM	–	–	0.43	(39 ± 4) 10^5 M^−1s^−1	2.1 ± 0.1	–
Cc1ccc2c(c1)Oc1cc(C#N)ccc1N2 [Compound 21, 3-Methyl-7-cyanophenoxazine]	–	22 ± 5 nM	–	0.55	(44 ± 6) 10^5 M^−1s^−1	3.5 ± 0.1	–
CC(C)(C)c1ccc2c(c1)Oc1ccc(C(F)(F)F)cc1N2 [Compound 7, 3-tert-Butyl-8-trifluoromethylphenoxazine]	–	4.1 ± 0.1 nM	4.1 ± 0.1 nM	–	(75 ± 13) 10^5 M^−1s^−1	2.8 ± 0.1	Pfa-1 MEF Ferroptosis EC50 [3, 13]: single-digit nanomolar potency
COc1ccc2c(c1)Oc1cc(C#N)ccc1N2 [Compound 22, 3-Methoxy-7-cyanophenoxazine]	–	42 ± 6 nM	–	0.55	–	3.1 ± 0.3	kinh^lip [6, 16]: (133 ± 15)^e 10^5 M^−1s^−1
O=[N+]([O-])c1ccc2c(c1)Oc1ccccc1N2 [Compound 15, 3-nitrophenoxazine]	–	43 nM	–	0.62	–	2.2 ± 0.1	kinh^lip [6, 16]: (10 ± 1)^e 10^5 M^−1s^−1
c1ccc2c(c1)Nc1ccccc1O2 [Compound 1, phenoxazine, reference compound]	–	–	–	0.44	–	2.0 ± 0.1	kinh [1]: ~ 4×10^7 M^−1s^−1; EC50 (MEFs): 9 nM; EC50 [4]: 16 ± 1 nM; EC50 ([4]; 5 h, read-out: Pfa-1 MEF Ferroptosis EC50): 16 nM; kinh^lip [6, 16]: (232 ± 23)^e 10^5 M^−1s^−1; kinh^lip [6, 15]: 220000 M⁻¹ s⁻¹
CC(C)(C)c1ccc2c(c1)Nc1ccc(C(F)(F)F)cc1O2 [Compound 11, 2-tert-Butyl-7-trifluoromethylphenoxazine]	–	3.6 ± 0.2 nM	3.6 ± 0.2 nM	–	(44 ± 3) 10^5 M^−1s^−1	2.6 ± 0.1	Pfa-1 MEF Ferroptosis EC50 [3, 13]: single-digit nanomolar potency
N#Cc1ccc2c(c1)Oc1ccccc1N2 [Compound 20, 3-cyanophenoxazine]	–	58 ± 1 nM	–	0.56	(27 ± 2) 10^5 M^−1s^−1	3.6 ± 0.1	–
COc1ccc2c(c1)Sc1cc(OC)ccc1N2 [Compound 32, 3,7-dimethoxyphenothiazine, reference compound]	–	9 nM	–	0.34	–	–	kinh^lip [6, 17]: 840 ^f 10^5 M^−1s^−1; predicted increase in kinh^lip relative to PNX [6]: 3.8 fold
